Molecular target: T1, human JAK1 (a.a. 837-1142) (Homo sapiens, UniProt P23458)
T1 construct: human JAK1 (a.a. 837-1142); His tag (N); made in house; host or cells: insect cells (baculovirus)
Assay: In vitro JAK kinase assay (HTRF, phosphorylation of biotinylated peptide), JAK1
Format: biochemical
Conditions: measured at 1 mM ATP
Protocol: The compound of Formula I herein was tested for inhibitory activity of JAK targets according to the following in vitro assay described in Park et al., Analytical Biochemistry 1999, 269, 94-104. The catalytic domains of human JAK1 (a.a. 837-1142) and JAK2 (a.a. 828-1132) with an N-terminal His tag were expressed using baculovirus in insect cells and purified. The catalytic activity of JAK1 and JAK2 was assayed by measuring the phosphorylation of a biotinylated peptide. The phosphorylated peptide was detected by homogenous time resolved fluorescence (HTRF). IC50s of compounds were measured for each kinase in the 40 microL reactions that contain the enzyme, ATP and 500 nM peptide in 50 mM Tris (pH 7.8) buffer with 100 mM NaCl, 5 mM DTT, and 0.1 mg/mL (0.01%) BSA. For the 1 mM IC50 measurements, ATP concentration in the reactions was 1 mM. Reactions were carried out at room temperature for 1 hr and then stopped with 20 μL 45 mM EDTA, 300 nM SA-APC, 6 nM Eu-Py20 in assay buffer (Perkin Elmer, Boston, Mass.). Binding to the Europium labeled antibody took place for 40 minutes and HTRF signal was measured on a Fusion plate reader (Perkin Elmer, Boston, Mass.).

T1 sequence (P23458 849-1154): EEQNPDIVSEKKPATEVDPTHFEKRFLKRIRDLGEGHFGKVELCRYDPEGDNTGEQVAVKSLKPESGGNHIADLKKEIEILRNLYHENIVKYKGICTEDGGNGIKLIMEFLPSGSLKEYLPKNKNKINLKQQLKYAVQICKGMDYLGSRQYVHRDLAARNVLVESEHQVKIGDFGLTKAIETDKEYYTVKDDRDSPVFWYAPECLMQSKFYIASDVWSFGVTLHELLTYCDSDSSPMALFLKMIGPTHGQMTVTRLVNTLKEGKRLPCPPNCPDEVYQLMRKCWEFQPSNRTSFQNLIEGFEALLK

IC50: ≤ 5 nM
Compound: N#CCC1(n2cc(-c3ncnc4[nH]ccc34)cn2)CN(C2CCN(C(=O)c3ccnc(C(F)(F)F)c3F)CC2)C1 [Example 1, {1-{1-[3-fluoro-2-(trifluoromethyl)isonicotinoyl]piperidin-4-yl}-3-[4-(7H-pyrrolo[2,3-d]pyrimidin-4-yl)-1H-pyrazol-1-yl]azetidin-3-yl}acetonitrile]

From US9718834B2, “Processes and intermediates for making a JAK inhibitor” (Incyte Corporation, priority 2011, dated 2017)
